Measured values reported in patent publication US9938222B2 (BRISTOL-MYERS SQUIBB COMPANY, priority 2014, dated 2018).

The molecules below were run against human GPR120 (Homo sapiens (Human), UniProt Q5NUL3) (assay: GPR120 pERK AlphaScreen SureFire Assay (human GPR120 pERK assay)). Details: CHO cells stably transfected with short form of human GPR120.
Type: cell-based
Source text: GPR120 activity was monitored by measuring phosphorylation of ERK (pERK), since G protein receptors are known to activate the ERK signaling cascade either directly and/or through recruitment of arrestin that serves as a scaffold for downstream signaling events.
GPR120 pERK AlphaScreen SureFire Assay
The human and mouse GPR120-mediated intracellular phosphorylated ERK assays were established using CHOA12 cells stably transfected with the short form of human or mouse GPR120 receptor. Cells were cultured in growth medium consisting of F-12 media (Invitrogen Cat. #11765) with 5% Charcoal/Dextran FBS (Invitrogen Cat. #12676-029), 500 μg/mL GENETICIN® (Life Technologies Cat. #10131-027) and 250 μg/mL Zeocin (Invitrogen Cat. #R250-01). Cells were cryo-preserved at a concentration of 2×10^7 cells/mL, in 90% Charcoal/Dextran FBS and 10% DMSO, and frozen in liquid nitrogen at a low passage number.
For the pERK assay, 2×10^7 cells/mL cryopreserved human and mouse cells were thawed rapidly in a 37° C. water bath and added to a T-225 flask containing 50 mL growth medium. The flasks were placed in a tissue culture incubator overnight (37° C., 5% CO2). The next day, cells were harvested with trypsin (Gibco Cat. #25300-054), resuspended in serum-containing growth medium and counted using a Cellometer and volume adjusted to a concentration of 0.6×10^6 cells/mL. Cells were plated into 384-well clear bottom tissue culture plates (BD Cat. #353962) at 50 μL/well, for a density of 30,000 cells/well using a MULTIDROP® and incubated for 16-18 hours (overnight) at 37° C. with 5% CO2. The next day, cells were serum starved in 30 μL of F-12 media without any serum or antibiotics for 2 hours at 37° C.
Test compounds were 3-fold, 11-point serially diluted in DMSO in a REMP assay plate (Matrix Cat. #4307) by Tecan and 5 μL was transferred into an ECHO source plate (Labcyte Cat. #LC-0200). Cells were then stimulated with 50 nL of compound dilutions using ECHO liquid handler for 7 min at 37° C. Compounds ranged from final assay concentrations of 33.33 μM to 0.56 nM.
The media was then dumped and cells lysed with 20 μL of 1× Lysis buffer from the AlphaScreen SureFire Phospho-ERK 1/2 Kit (Perkin Elmer Cat. #6760617M). The lysis buffer was diluted 5-fold with water before use. The plate was agitated on a shaker for 10 min after which 2 μL was transferred into a 384-well white proxiplate (Perkin Elmer Cat. #6008289). The SureFire assay reagent mix was prepared by mixing 60 parts Reaction Buffer, 10 parts Activation Buffer, 1 part Donor Beads, 1 part Acceptor Beads (Perkin Elmer Cat. #TGRES10K). 3.5 μL/well of this reagent mix was manually added to the proxiplate with a multichannel pipettor. Plates were spun down at 1000 rpm for 2 min, followed by light-protected incubation at room temperature for 2 hours. The plates were read on the Alpha-technology compatible Envision multilabel plate reader using AlphaScreen protocol according to manufacturer's specifications. The agonist effect of compounds was expressed as 100×(average sample-average blank)/(average total-average blank) where sample is the luminescence activity in the presence of test compound, blank is equal to the luminescence activity in the presence of DMSO control and the total is signal induced by 50 μM linolenic acid as reference compound. Activation data for the test compound over a range of concentrations was plotted as percentage activation of the test compound (100%=maximum response). After correcting for background, EC50 values were determined. The EC50 is defined as the concentration of test compound which produces 50% of the maximal response and was quantified using the 4 parameter logistic equation to fit the data.
The human and mouse GPR120-mediated intracellular phosphorylated ERK assays were also established using CHO-K1 cells stably transfected with the short form of human or mouse GPR120 receptor. […]

human GPR120, sequence (Q5NUL3 whole entry): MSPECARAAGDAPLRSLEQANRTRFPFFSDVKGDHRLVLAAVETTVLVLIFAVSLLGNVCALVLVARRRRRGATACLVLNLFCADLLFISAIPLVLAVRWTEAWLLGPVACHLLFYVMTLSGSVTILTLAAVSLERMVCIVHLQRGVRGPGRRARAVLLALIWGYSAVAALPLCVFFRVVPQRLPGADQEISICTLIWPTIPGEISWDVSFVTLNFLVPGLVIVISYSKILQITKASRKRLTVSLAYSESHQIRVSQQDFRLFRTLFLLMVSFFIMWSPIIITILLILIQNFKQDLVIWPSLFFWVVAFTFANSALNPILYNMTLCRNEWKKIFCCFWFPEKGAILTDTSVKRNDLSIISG

EC50 | SMILES
980 nM | O=C(O)[C@@H]1C[C@H]1COCc1ccc(-c2cc(Oc3ccccc3)ccc2F)cc1 (racemic) [Example 25, Trans-2-(((2′-fluoro-5′-phenoxy-[1,1′-biphenyl]-4-yl)methoxy)methyl) cyclopropanecarboxylic acid]
2400 nM | CC(C)Oc1cc(-c2ccc(OC[C@@H]3C[C@H]3C(=O)O)cc2)c(F)cn1 (racemic) [Example 70, Trans-2-((4-(5-fluoro-2-isopropoxypyridin-4-yl)phenoxy)methyl)cyclopropanecarboxylic acid]
760 nM | O=C(O)[C@@H]1C[C@H]1COc1ccc(-c2cc(Cl)cc(OC(F)(F)F)c2)cc1 (racemic) [Example 48, Trans-2-(((3′-chloro-5′-(trifluoromethoxy)-[1,1′-biphenyl]-4-yl)oxy)methyl)cyclopropanecarboxylic acid]
2440 nM | O=C(O)[C@@H]1C[C@H]1COc1ccc(-c2cc(Cl)cc(C(F)(F)F)c2)cc1 (racemic) [Example 124, Trans-2-(((3′-chloro-5′-(trifluoromethyl)-[1,1′-biphenyl]-4-yl)oxy)methyl)cyclopropanecarboxylic acid]
420 nM | CC(C)Oc1ccc(F)c(-c2ccc(CC[C@H]3C[C@H]3C(=O)O)cc2)c1 (single isomer, unassigned) [Example 16]
430 nM | CC(C)Oc1ccc(F)c(-c2ccc(C[C@H]3C[C@H]3CC(=O)O)cc2)c1 (racemic) [Example 34, Cis-2-(2-((2′-fluoro-5′-isopropoxy-[1,1′-biphenyl]-4-yl)methyl)cyclopropyl)acetic acid]
440 nM | CC(C)Oc1ccc(F)c(-c2ccc(COC[C@@H]3C[C@H]3C(=O)O)cc2)c1 (racemic) [Example 24, Trans-2-(((2′-fluoro-5′-isopropoxy-[1,1′-biphenyl]-4-yl)methoxy)methyl) cyclopropanecarboxylic acid]
310 nM | CC(C)Oc1ccc(F)c(-c2ccc(OC[C@@H]3C[C@H]3C(=O)O)c(F)c2)c1 (racemic) [Example 62, Trans-2-(((2′,3-difluoro-5′-isopropoxy-[1,1′-biphenyl]-4-yl)oxy)methyl) cyclopropanecarboxylic acid]
990 nM | CC(C)Oc1ccc(F)c(-c2ccc(CC[C@H]3C[C@@H]3C(=O)O)cc2)c1 (single isomer, unassigned) [Example 32]
320 nM | CC(C)Oc1ccc(F)c(-c2ccc(CC[C@@H]3C[C@H]3C(=O)O)cc2)c1 (racemic) [Example 30, Trans-2-(2-(2′-fluoro-5′-isopropoxy-[1,1′-biphenyl]-4-yl)ethyl)cyclopropanecarboxylic acid]
2860 nM | CC(C)Oc1ccc(F)c(-c2ccc(OC[C@@H]3C[C@@H]3C(=O)O)cc2)c1 (single isomer, unassigned) [Example 8]
170 nM | Cc1ccc(Oc2ccc(F)c(-c3ccc(OC[C@@H]4C[C@H]4C(=O)O)c(F)c3)c2)cn1 (racemic) [Example 103, Trans-2-(((2′,3-difluoro-5′-((6-methylpyridin-3-yl)oxy)-[1,1′-biphenyl]-4-yl)oxy)methyl)cyclopropanecarboxylic acid]
470 nM | O=C(O)C1CC1COc1ccc(-c2cc(OC(F)(F)F)ccc2F)cc1 (racemic) [Example 51, Trans-2-(((2′-fluoro-5′-(trifluoromethoxy)-[1,1′-biphenyl]-4-yl)oxy)methyl)cyclopropanecarboxylic acid]
570 nM | CC(C)Oc1cc(F)cc(-c2ccc(OC[C@@H]3C[C@H]3C(=O)O)cc2F)c1 (racemic) [Example 60, Trans-2-(((2,3′-difluoro-5′-isopropoxy-[1,1′-biphenyl]-4-yl)oxy)methyl) cyclopropanecarboxylic acid]
470 nM | CC(C)Oc1ccc(F)c(-c2ccc(OC[C@@H]3C[C@H]3C(=O)O)cc2)c1 (single isomer, unassigned) [Example 3]
310 nM | CC(C)Oc1cc(Cl)cc(-c2ccc(OC[C@H]3C[C@@H]3C(=O)O)c(F)c2)c1 (racemic) [Example 12, Trans-2-(((3′-chloro-3-fluoro-5′-isopropoxy-[1,1′-biphenyl]-4-yl)oxy)methyl) cyclopropanecarboxylic acid]
370 nM | O=C(O)[C@@H]1C[C@H]1COc1ccc(-c2cc(OCC3CC3)ccc2F)cc1 (racemic) [Example 95, Trans-2-(((5′-(cyclopropylmethoxy)-2′-fluoro-[1,1′-biphenyl]-4-yl)oxy)methyl)cyclopropanecarboxylic acid]
260 nM | O=C(O)C1CC1COc1ccc(-c2cc(OC3CCCC3)ccc2F)cc1 (racemic) [Example 50, Trans-2-(((5′-cyclopentyloxy)-2′-fluoro-[1,1′-biphenyl]-4-yl)oxy)methyl) cyclopropanecarboxylic acid]
640 nM | CC(C)Oc1cc(Cl)cc(-c2ccc(OC[C@@H]3C[C@H]3C(=O)O)c(F)c2)c1 (single isomer, unassigned) [Example 13]
70 nM | O=C(O)[C@@H]1CC1COc1ccc(-c2cc(Oc3cccc(F)c3)ccc2F)cc1F (stereo partly drawn) [Example 97]
10800 nM | CC(C)Sc1ncc(C(F)(F)F)cc1-c1ccc(OC[C@@H]2C[C@H]2C(=O)O)cc1 (racemic) [Example 69, Trans-2-((4-(2-(isopropylthio)-5-(trifluoromethyl)pyridin-3-yl)phenoxy)methyl)cyclopropanecarboxylic acid]
410 nM | O=C(O)[C@H]1C[C@H]1COc1ccc(-c2cc(Oc3ccccc3)ccc2F)cc1 (single isomer, unassigned) [Example 6]
460 nM | O=C(c1ccccc1)c1cccc(-c2ccc(OC[C@@H]3C[C@H]3C(=O)O)cc2)c1 (racemic) [Example 118, Trans-2-(((3′-benzoyl-[1,1′-biphenyl]-4-yl)oxy)methyl) cyclopropanecarboxylic acid]
500 nM | O=C(O)[C@@H]1C[C@H]1COc1ccc(-c2cc(OC(F)(F)F)ccc2Cl)cc1 (racemic) [Example 54, Trans-2-(((2′-chloro-5′-(trifluoromethoxy)-[1,1′-biphenyl]-4-yl)oxy)methyl)cyclopropanecarboxylic acid]
80 nM | O=C(O)[C@@H]1C[C@H]1COc1ccc(-c2cc(Oc3ccccc3)ccc2F)cc1F (single isomer, unassigned) [Example 10]
1760 nM | CC(C)Oc1ccc(F)c(-c2ccc(OC[C@@H]3C[C@H]3C(=O)O)c(C=O)c2)c1 (racemic) [Example 87, Trans-2-(((2′-fluoro-3-formyl-5′-isopropoxy-[1,1′-biphenyl]-4-yl)oxy)methyl) cyclopropanecarboxylic acid]
260 nM | Cc1ccc(Oc2cc(F)c(F)c(-c3ccc(OCC4CC4C(=O)O)c(F)c3)c2)cc1F (single isomer, unassigned) [Example 109]
700 nM | O=C(O)[C@@H]1C[C@H]1CCc1ccc(-c2cccc(-n3cccn3)c2)cc1 (racemic) [Example 128, Trans-2-(2-(3′-(1H-pyrazol-1-yl)-[1,1′-biphenyl]-4-yl)ethyl) cyclopropanecarboxylic acid]

SMILES | EC50
CC(C)COc1cc(F)cc(-c2ccc(OC[C@@H]3C[C@H]3C(=O)O)cc2)c1 (racemic) [Example 72, Trans-2-(((3′-fluoro-5′-isobutoxy-[1,1′-biphenyl]-4-yl)oxy)methyl) cyclopropanecarboxylic acid] | 1550 nM
CC[C@@H](C)Oc1ccc(F)c(-c2ccc(OCC3CC3C(=O)O)cc2)c1 (stereo partly drawn) [Example 93, Trans-2-(((5′-((R)-sec-butoxy)-2′-fluoro-[1,1′-biphenyl]-4-yl)oxy)methyl) cyclopropanecarboxylic acid] | 300 nM
